The results in this text go back to ChEMBL document CHEMBL1145519, “Exploitation of structural and regulatory diversity in glutamate racemases” (Nature, 2007).

A word on the pIC50: it is the IC50 on a negative log10 scale, so that one unit is a factor of ten. One may read the pKd as −log10 of the Kd, conventionally taken in molar units. As usually defined, the MIC is the smallest concentration in the dilution series that meets the test's criterion for growth inhibition. Lower therefore signals inhibition by little substance. One may read the pKi as −log10 of the Ki, conventionally taken in molar units. A higher pKi goes with a small Ki.

pIC50, pKd, pKi: −log10 of the molar value. Values after ≈ are worked out from the molar mass of the structure shown.

For assay [1], the target named is T1, Glutamate racemase (Helicobacter pylori (strain ATCC 700392 / 26695) (Campylobacterpylori), UniProt P56068).
T1 sequence (P56068 whole entry): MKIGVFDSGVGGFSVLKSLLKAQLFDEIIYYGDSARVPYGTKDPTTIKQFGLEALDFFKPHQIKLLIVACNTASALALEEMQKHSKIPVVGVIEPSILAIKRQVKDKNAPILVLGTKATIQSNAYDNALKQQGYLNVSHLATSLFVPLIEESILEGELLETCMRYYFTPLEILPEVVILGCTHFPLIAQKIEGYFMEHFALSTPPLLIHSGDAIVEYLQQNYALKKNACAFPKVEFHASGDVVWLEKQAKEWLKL
In words: Inhibition of Helicobacter pylori glutamate racemase.

Assay [2] deals with T1, Glutamate racemase. In words: Binding affinity to Helicobacter pylori MurI by protein fluorescence binding assay.
Assay [3] can be described thus: Inhibition of MurI in Staphylococcus aureus.
Assay [4] concerns the target T2, Glutamate racemase (Streptococcus pneumoniae serotype 4 (strain ATCC BAA-334 / TIGR4), UniProt P63640).
T2 sequence (P63640 whole entry): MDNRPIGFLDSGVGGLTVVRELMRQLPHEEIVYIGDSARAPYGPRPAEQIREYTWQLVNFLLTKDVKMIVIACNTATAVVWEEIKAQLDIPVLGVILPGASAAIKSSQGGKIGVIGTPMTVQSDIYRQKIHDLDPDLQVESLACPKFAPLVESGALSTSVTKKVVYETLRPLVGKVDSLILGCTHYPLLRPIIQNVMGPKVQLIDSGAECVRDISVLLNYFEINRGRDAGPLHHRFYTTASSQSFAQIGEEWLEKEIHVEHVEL
Nature of the assay: Inhibition of MurI in Streptococcus pneumoniae.

The nature of assay [5]: Inhibition of MurI in Escherichia coli.
For a further assay, the system named is Helicobacter pylori. Nature of the assay: Antimicrobial activity against Helicobacter pylori. In kind it is functional.
The test system of a further assay is Staphylococcus aureus. Nature of the assay: Antimicrobial activity against Staphylococcus aureus. It counts as functional.
The subject of another assay is Streptococcus pneumoniae. In words: Antimicrobial activity against Streptococcus pneumoniae. In kind it is functional.
For the next assay, the system named is Escherichia coli. In words: Antimicrobial activity against Escherichia coli. It counts as functional.
Assay [6] addresses T1, Glutamate racemase. Nature of the assay: Binding affinity to Helicobacter pylori MurI by isothermal titration calorimetry. Background: In ITC the heat of successive injections is recorded.
Assay [7] addresses Glutamate racemase (Helicobacter pylori (strain ATCC 700392 / 26695) (Campylobacterpylori), UniProt P56068, A75T). In words: Inhibition of Helicobacter pylori MurI A75T mutant.
The target in assay [8] is Glutamate racemase (Helicobacter pylori (strain ATCC 700392 / 26695) (Campylobacterpylori), UniProt P56068, E151K). In words: Inhibition of Helicobacter pylori MurI E151K mutant.
Glutamate racemase (Helicobacter pylori (strain ATCC 700392 / 26695) (Campylobacterpylori), UniProt P56068, E151K), sequence (P56068 whole entry E151K): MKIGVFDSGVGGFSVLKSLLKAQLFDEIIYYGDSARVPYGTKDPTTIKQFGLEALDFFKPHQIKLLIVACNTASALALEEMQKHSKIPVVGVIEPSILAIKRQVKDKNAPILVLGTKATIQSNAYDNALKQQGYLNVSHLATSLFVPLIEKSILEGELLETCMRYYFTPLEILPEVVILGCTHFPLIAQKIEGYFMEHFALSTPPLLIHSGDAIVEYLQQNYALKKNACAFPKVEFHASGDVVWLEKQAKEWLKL

Glutamate racemase (Helicobacter pylori (strain ATCC 700392 / 26695) (Campylobacterpylori), UniProt P56068, A75T), sequence (P56068 whole entry A75T): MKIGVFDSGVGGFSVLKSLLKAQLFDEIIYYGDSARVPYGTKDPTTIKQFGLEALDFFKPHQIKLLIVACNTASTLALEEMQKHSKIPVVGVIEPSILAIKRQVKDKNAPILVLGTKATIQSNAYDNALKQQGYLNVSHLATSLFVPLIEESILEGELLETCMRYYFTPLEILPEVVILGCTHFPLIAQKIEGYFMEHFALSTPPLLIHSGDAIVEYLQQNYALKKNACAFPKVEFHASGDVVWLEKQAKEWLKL

`Cn1cc(C#N)cc1-c1c2c(=O)n(C)c(=O)n(CC3CC3)c2nn1Cc1ccnc2ccc(Cl)cc12`: the pIC50 on Glutamate racemase [1] was 7.60; in assay [3] it was less than 3.40; against Glutamate racemase [4], less than 3.40; in [5] it was less than 3.40. The compound also showed a pKd at Glutamate racemase [2] of 7.60. For the same compound, the MIC is 0.5 µg/mL (≈ 1 µM) with Helicobacter pylori, more than 64 µg/mL in the assay with Staphylococcus aureus, more than 64 µg/mL with Streptococcus pneumoniae and more than 64 µg/mL in the assay with Escherichia coli.

As to `CC(C)Cn1c(=O)n(C)c(=O)c2c(-c3ccncc3)n(Cc3cccc4ccccc34)nc21`, the pIC50 was 5.85 against Glutamate racemase [1], less than 3.40 in [3], less than 3.40 on Glutamate racemase [4] and less than 3.40 in [5]. Besides, the pKd is 5.41 at Glutamate racemase [2] and 5.54 at Glutamate racemase [6]. Further, the MIC is 4 µg/mL (≈ 9.1 µM) in the assay on Helicobacter pylori, more than 64 µg/mL against Staphylococcus aureus, more than 64 µg/mL in the assay with Streptococcus pneumoniae and more than 64 µg/mL with Escherichia coli.

With `N[C@H](CCC(=O)O)C(=O)O` [D-GLUTAMATE], the pKi at Glutamate racemase [1] was 5.24; at Glutamate racemase [7], 3.18; at Glutamate racemase [8], less than 1.00.
